Laboratory results: patent US20080118990A1, “Assay For Lipoproteins Using Lumiphore K-37” (Science and Technology Facilities Council, priority 2004, published 2008)
Blank lines part the entries; values can stand above or below the compound they belong to.

What was measured:
[1] = target: drug binding domain of HSA (Homo sapiens, UniProt P02768); assay: Displacement of Nile Red from HSA by agents that block the drug binding domain (Example 6); conditions: agent at about 5 mM, without affecting the lipoprotein fluorescence
Chain of drug binding domain of HSA (P02768 25-609): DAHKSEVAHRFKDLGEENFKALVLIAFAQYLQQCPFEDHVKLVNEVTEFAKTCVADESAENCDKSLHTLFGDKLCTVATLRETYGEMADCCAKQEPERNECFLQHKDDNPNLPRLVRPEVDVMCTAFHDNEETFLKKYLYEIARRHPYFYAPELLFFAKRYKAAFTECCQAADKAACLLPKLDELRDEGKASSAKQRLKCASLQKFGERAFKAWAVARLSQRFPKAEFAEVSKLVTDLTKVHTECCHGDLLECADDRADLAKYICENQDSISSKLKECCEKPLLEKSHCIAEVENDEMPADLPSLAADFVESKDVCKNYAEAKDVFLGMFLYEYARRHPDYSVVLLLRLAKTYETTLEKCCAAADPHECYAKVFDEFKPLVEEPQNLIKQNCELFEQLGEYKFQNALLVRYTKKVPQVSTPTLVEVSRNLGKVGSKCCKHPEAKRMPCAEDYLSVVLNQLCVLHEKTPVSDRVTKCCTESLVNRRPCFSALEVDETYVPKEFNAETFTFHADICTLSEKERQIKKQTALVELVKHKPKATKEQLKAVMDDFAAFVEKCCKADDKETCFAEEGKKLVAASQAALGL
Text: (§1) This lead the inventors to realise that the HDL/Nile red assay may be improved further by using an additional blocker. They tried agents that block the drug binding domain of HSA. […] The benzoic acid has the added bonus of quenching the Nile Red residual fluorescence in solution by about 20%.

[2] = Quenching of Nile Red residual fluorescence in solution (Example 6); type: physicochemical
Text: as §1

LDL [3] = assay: K-37 fluorescence in LDL with and without octanoate (Example 2); type: binding
Protocol: The dye K-37 was added at a concentration of 0.5 mM to LDL at a total lipid concentration of 5 mM, in the presence and absence of 50 mg/ml HSA. Measurements were made with and without the addition of 0.1 M sodium octanoate, which acted as a ligand binding inhibitor.

[4] = target: T1, Human Serum Albumin (HSA) (Homo sapiens, UniProt P02768); assay: K-37 fluorescence with HSA with and without octanoate, blocking of HSA (Example 2)
T1 sequence (P02768 25-609): as above

LDL [5] = assay: Nile Red fluorescence in LDL with and without octanoate (Example 3); type: binding
[6] = target: T1, Human Serum Albumin (HSA); assay: Nile Red fluorescence with HSA with and without octanoate (Example 3); type: binding
HDL = assay: Nile Red fluorescence in HDL compared with VLDL and LDL at different excitation wavelengths (Example 6); design: species or system human
Protocol: Further optimisation of the assay according to the invention Further tests were performed on human serum samples to investigate optimum excitation wavelengths for inducing fluorescence indicative of HDL levels according to the method of the invention.
The inventors tested a number of wavelengths and have established that, when using Nile Red, that an excitation wavelength of 600 nm and an emission wavelength of 620 nm gives optimal results (see FIG. 15). The inventors were surprised that this excitation wavelength was optimal because it is to the very long wavelength edge of the spectrum.
For certain samples the inventors observed a noisier plot with an excitation wavelength of 460 nm and an emission wavelength of 620 nm (see FIG. 16).
The inventors believe that Nile Red is about 5 times more fluorescent in HDL than VLDL and LDL when excited at 600 nm as opposed to excitation at 460 nm where it is only about 2 times more fluorescent. This gives a better signal to noise when subtracting from the standard curve of LDL plus VLDL.

Compound: O=C(O)c1ccccc1 [benzoic acid]
displacement of Nile Red from HSA [1]: worked to displace the Nile Red from HSA | quenching of Nile Red residual fluorescence in solution [2]: about 20%

Fluorescence Intensity ([4]; 0.5 mM K-37 plus 50 mg/ml HSA + 0.1 M sodium octanoate): 3600 units | Fluorescence Intensity ([4]; 0.5 mM K-37 plus 50 mg/ml HSA, no octanoate): 79300 units
Compound: CN(C)c1ccc(/C=C/C(=O)c2ccc(S(=O)(=O)C(F)F)cc2)cc1 [K-37, 4-dimethylamino-4′-difluoromethyl-sulphonyl-benzylidene-acetophenone]
Fluorescence Intensity (LDL [3]; 0.5 mM K-37 plus 5 mM LDL + 0.1 M sodium octanoate): 209700 units | Fluorescence Intensity (LDL [3]; 0.5 mM K-37 plus 5 mM LDL, no octanoate): 213500 units

Fluorescence Intensity ([6]; 0.5 mM Nile Red plus 50 mg/ml HSA + 50 mM octanoate): 9.118 units | Fluorescence Intensity ([6]; 0.5 mM Nile Red plus 50 mg/ml HSA, no octanoate): 58.905 units
Compound: CCN(CC)c1ccc2nc3c4ccccc4c(=O)cc-3oc2c1 [Nile Red]
Fluorescence Intensity (LDL [5]; 0.5 mM Nile Red plus 5 mM LDL + 50 mM octanoate): 183.786 units | Fluorescence Intensity (LDL [5]; 0.5 mM Nile Red plus 5 mM LDL, no octanoate): 187.532 units | times more fluorescent in HDL than VLDL and LDL (HDL; excitation at 460 nm): about 2 times | times more fluorescent in HDL than VLDL and LDL (HDL; excited at 600 nm): about 5 times

Compound: CCCCCCCC(=O)[O-].[Na+] [octanoate, sodium octanoate]
effect of octanoate on K-37 fluorescence in LDL (LDL [3]; 0.1 M sodium octanoate, 5 mM LDL, 0.5 mM K-37): little effect | effect of octanoate on Nile Red fluorescence in LDL (LDL [5]; 50 mM octanoate, 5 mM LDL, 0.5 mM Nile Red): little effect
